This note sets out measurements from PubChem BioAssay (NCI).

The structures appear in SMILES notation.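 How tested: cells in 96-well plates exposed to compound for 48 hours at five concentrations. GI50 marks 50% less growth. TGI: concentration producing complete growth inhibition.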 Where only a bound is given, the exact number is not on record here.

Test systems include XF 498 CNS; RXF-631 renal; DLD-1 colon; M19-MEL melanoma; DU-145 prostate; PC-3 prostate; MCF7 breast; MDA-N; MDA-MB-231 breast.
Assay in all cases: NCI tumour cell line growth inhibition, 48 h

For the compound `CC[O+]=c1cccc2ssnc1-2`, the TGI in the assay with XF 498 CNS is 66.9 µM; with RXF-631 renal, greater than 100 µM; with DLD-1 colon, greater than 100 µM; in the assay on M19-MEL melanoma it was greater than 100 µM.
On to `CC(C)c1cccc2sc(NC(=O)C(=O)CC(=O)c3ccc(F)cc3)nc12`, for which the TGI in the assay on XF 498 CNS, in the assay with RXF-631 renal, in the assay on DLD-1 colon and in the assay with M19-MEL melanoma was greater than 100 µM each time.
Regarding `CC(=O)C1C(=O)C(=O)N(c2ccc(Cl)cc2C)C1=O` (stereo not given), the TGI in the assay with RXF-631 renal, in the assay on DLD-1 colon and with M19-MEL melanoma was greater than 100 µM each time.
As to `CCOC(=O)NC(=O)c1cn(-c2ccc(CCOC(=O)CCCCCCCCC(=O)OCCc3ccc(-n4cc(C(=O)NC(=O)OCC)c(=O)[nH]c4=O)cc3)cc2)c(=O)[nH]c1=O`, the TGI in the assay on XF 498 CNS, in the assay on RXF-631 renal, in the assay with DLD-1 colon and in the assay with M19-MEL melanoma was greater than 100 µM in each case.
Regarding `CN(C)CC1CCC(CN(C)C)C1=NO` (stereo not given), the TGI in the assay on DLD-1 colon and with M19-MEL melanoma was greater than 100 µM throughout.
As for `CN(C)c1ccc2c(SCC(=O)OCC(=O)[C@@]3(O)CC[C@H]4[C@@H]5CCC6=CC(=O)C=C[C@]6(C)[C@H]5C(=O)C[C@@]43C)c3ccc(N(C)C)cc3nc2c1`, the TGI in the assay with DU-145 prostate is 58.2 µM; in the assay with PC-3 prostate, greater than 100 µM; in the assay with MCF7 breast, greater than 100 µM; in the assay on MDA-N, greater than 100 µM; with MDA-MB-231 breast, greater than 93.8 µM.
Take `COc1cc(C(C)c2cc3c(cc2OCCOCCOc2cc4c(cc2C(C)c2cc(OC)c(OC)c(OC)c2)OCO4)OCO3)cc(OC)c1OC` (stereo not given): the TGI was greater than 10 µM in the assay on XF 498 CNS, greater than 100 µM in the assay with RXF-631 renal, greater than 100 µM in the assay on DLD-1 colon and greater than 100 µM in the assay on M19-MEL melanoma. Further, the GI50 with RXF-631 renal, with DLD-1 colon and with M19-MEL melanoma was greater than 100 µM in each case.
In the case of `Cc1occc1C(=S)Nc1ccc(Cl)c(C(=O)OCC2CC2)c1`, the TGI in the assay on DU-145 prostate, in the assay on PC-3 prostate, in the assay on MCF7 breast, with MDA-N and in the assay on MDA-MB-231 breast was greater than 100 µM each time.
Consider `[O-]c1c(-c2ccccc2)[se]c(-c2ccccc2)[n+]1-c1ccccc1`, for which the values for the TGI with RXF-631 renal, with DLD-1 colon and in the assay with M19-MEL melanoma were 29.9 µM, 4.48 µM and 21.3 µM, respectively.
Regarding `C/C(=C\c1ccccc1)C(O)S(=O)(=O)O` (stereo not given), the TGI in the assay with DLD-1 colon and in the assay on M19-MEL melanoma was greater than 100 µM throughout.
As to `COc1ncnc2c1ncn2C/C(Br)=C(\Br)CCl`, the GI50 with DU-145 prostate is 5.31 µM; with PC-3 prostate, 9.12 µM; with MCF7 breast, 1.43 µM; with MDA-MB-231 breast, 2.4 µM. Further, the TGI in the assay on DU-145 prostate was found to be 18.2 µM; in the assay on PC-3 prostate, 23.3 µM; in the assay on MCF7 breast it was 3.06 µM; with MDA-MB-231 breast, 7.28 µM.
Take `CCOc1ccccc1N=C(NC(=O)CC)SC`: the GI50 in the assay on RXF-631 renal is greater than 100 µM; in the assay with DLD-1 colon, greater than 10 µM; with M19-MEL melanoma, greater than 100 µM. The TGI with RXF-631 renal, with DLD-1 colon and with M19-MEL melanoma was greater than 100 µM in each case.
Turning to `Cc1ccc(S(=O)(=O)NC(C)C(=O)O)cc1` (stereo not given), the TGI in the assay on XF 498 CNS, with RXF-631 renal, in the assay with DLD-1 colon and in the assay with M19-MEL melanoma was greater than 100 µM throughout.
For `NC(N)=NS(=O)(=O)c1ccc(NC(=O)c2ccc(Cl)c3c(Nc4ccc(S(=O)(=O)N=C(N)N)cc4)c4ccccc4nc23)cc1`, the TGI with RXF-631 renal, with DLD-1 colon and in the assay with M19-MEL melanoma was greater than 100 µM in each case.
For `CN1C(=O)NC2(O)c3ccccc3C(=O)C12O` (stereo not given), the TGI in the assay on XF 498 CNS, in the assay on DLD-1 colon and in the assay with M19-MEL melanoma was greater than 100 µM throughout.
As for `CC1=C(CC/C(C)=C/CCC2(C)CCC([C@H](C)C(=O)O)OO2)C(C)(C)CCC1` (stereo not given in full) (tested in a mixture with another compound), the TGI in the assay on DLD-1 colon and in the assay on M19-MEL melanoma was greater than 100 µM in each case.
As for `CP(=O)(CCSc1ccccc1)c1ccccc1` (stereo not given), the TGI in the assay on XF 498 CNS, with DLD-1 colon and with M19-MEL melanoma was greater than 100 µM throughout.
Take `CCCCn1c(=O)c(/C=C/C(=O)/C=C/c2ccc(O)c(OC)c2)cc2ccc(Cl)cc21`: the GI50 in the assay with DU-145 prostate is 1.79 µM; with PC-3 prostate, 1.89 µM; in the assay on MCF7 breast, 1.88 µM; in the assay on MDA-MB-231 breast it was 2.51 µM. For the same compound, the TGI worked out at 3.92 µM with DU-145 prostate, 4.71 µM in the assay with PC-3 prostate, 10.8 µM in the assay on MCF7 breast and 7.73 µM in the assay on MDA-MB-231 breast.
Consider `c1ccc2c(c1)[Se]c1ccccc1[Se]2`, for which the TGI in the assay on XF 498 CNS, in the assay on DLD-1 colon and with M19-MEL melanoma was greater than 100 µM throughout.
For `S=C1SC2(CCCCCC2)NC2=C1CCCCC2`, the TGI was greater than 100 µM in the assay on DU-145 prostate; greater than 100 µM in the assay with PC-3 prostate; 65 µM in the assay with MCF7 breast; greater than 100 µM in the assay on MDA-N; greater than 100 µM in the assay on MDA-MB-231 breast.
As for `CCCC(=O)C(CC)/C(CCC(=O)N(Cc1ccccc1)Cc1ccccc1)=N/NC(=O)C[N+](C)(C)C` (stereo not given), the TGI in the assay with XF 498 CNS, in the assay with DLD-1 colon and in the assay on M19-MEL melanoma was greater than 100 µM throughout.
For `COC(=O)c1c(C(=O)OC)c(C(=O)OC)c(C(=O)OC)c1C(=O)OC`, the TGI in the assay on RXF-631 renal and in the assay on DLD-1 colon was greater than 100 µM in each case.
On to `COc1cc2c3c(n(CCCn4cccn4)c(=O)c2cc1OC)-c1cc2c(cc1C3=O)OCO2`, for which the GI50 in the assay on DU-145 prostate is 0.437 µM; in the assay with PC-3 prostate, 16.3 µM; in the assay on MCF7 breast it was 0.523 µM; in the assay on MDA-MB-231 breast, 8.65 µM. Moreover, the TGI in the assay with DU-145 prostate is 5.57 µM; with PC-3 prostate it was greater than 100 µM; with MCF7 breast, greater than 55.2 µM; in the assay on MDA-MB-231 breast, 35.5 µM.
For `CN1NC(c2ccccc2)=C(C#N)C(=O)CC1c1ccccc1Cl` (stereo not given), the TGI with XF 498 CNS, with RXF-631 renal and in the assay on DLD-1 colon was greater than 100 µM throughout.
